The text below walks through data of US11639350B2, “Heteroaryldihydropyrimidine derivatives and methods of treating hepatitis B infections” (Janssen Pharmaceutica NV, priority 2018, dated 2023).

The nature of series [1]: Cytotoxicity determination in HepG2.2.15 cells (CCK-8). Particulars: human, 6 days of compound treatment, CCK-8, highest concentration 100 μM. The class given is cell-based. The method, boiled down:
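HepG2.2.15 cells seeded at 5,000 cells/well in 2% FBS medium, incubated overnight at 37° C., then treated 6 days with compounds (8 points, 3-fold dilutions, top 100 μM), medium refreshed once midway. CCK-8 added for 2.5 h; A450 read against 630 nm reference; CC50 calculated, averaged over repeats.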

Series [2] has as its system HBV. Kind of series: HBV inhibitory activity: HBV DNA in the culture medium of HepG2.2.15 cells by q-PCR. The class given is cell-based. To be noted: Hepatitis B virus, HepG2.2.15, 144 h, HepG2.2.15 cells, 6 days of compound treatment, HBV DNA in culture medium by q-PCR, highest concentration 10 μM; read-out: EC50. The method, boiled down: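 HepG2.2.15 cells in 2% FBS medium, 40,000 per well, treated 6 days with compound (medium refreshed once), eight 3-fold dilutions from 10 μM top. HBV DNA extracted from culture medium and quantified by q-PCR; EC50 averaged over repeats. Cytotoxicity run in parallel at 5,000 cells per well, top 100 μM, giving CC50.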

Turning to `COC(=O)C1=C(C2CCN(S(C)(=N)=O)CC2)NC(c2nccs2)=NC1c1ccc(F)cc1Cl` (single isomer, unassigned) [Compound 401Y, Methyl 4-(2-chloro-4-fluorophenyl)-6-(1-(S-methylsulfonimidoyl)piperidin-4-yl)-2-(thiazol-2-yl)-1,4-dihydropyrimidine-5-carboxylate], half-maximal cytotoxicity in series [1] (CC50 at 6 days) was put at 60 µM. In addition, in series [2], the EC50 (as a rule, the concentration that produces a half-maximal response) came to 24 nM.

For the molecule `COC(=O)C1=C(C2CC(C(=O)O)C2)NC(c2nccs2)=NC1c1ccc(F)cc1Cl` (stereo not drawn) [Compound 86, 6-(3-Carboxy-cyclobutyl)-4-(2-chloro-4-fluoro-phenyl)-2-thiazol-2-yl-1,4-dihydro-pyrimidine-5-carboxylic acid methyl ester], in series [1], the CC50 (usually the concentration at which the toxic effect on the cells reaches its halfway point) at 6 days amounted to 21.6 µM. For the same molecule, the EC50 in series [2] turned out to be 110 nM.

In series [1], `COC(=O)C1=C(C2CCCC(NS(C)(=O)=O)CC2)NC(c2nccs2)=NC1c1ccc(F)cc1Cl` (stereo not drawn) [Compound 190, Methyl 4-(2-chloro-4-fluorophenyl)-6-(4-(methylsulfonamido)-cycloheptyl)-2-(thiazol-2-yl)-1,4-dihydropyrimidine-5-carboxylate] displayed a CC50 at 6 days of 15 µM. Also, the EC50 in series [2] is 78 nM.

With `COC(=O)C1=C(C2C[C@@H]3CN(S(C)(=O)=O)C[C@@H]3C2)NC(c2nccs2)=NC1c1ccc(F)cc1Cl` (single isomer, unassigned) [Compound 176A, Methyl 4-(2-chloro-4-fluorophenyl)-6-((cis)-2-(methylsulfonyl)-octahydrocyclopenta[c]pyrrol-5-yl)-2-(thiazol-2-yl)-1,4-dihydropyrimidine-5-carboxylate], the CC50 at 6 days in series [1] came out at 19.9 µM. In series [2], the EC50 was determined as 69 nM.

In series [1], `COC(=O)C1=C(C23CC(NS(=O)(=O)C4CNC4)(C2)C3)NC(c2nccs2)=NC1c1ccc(F)c(F)c1Cl` (stereo not drawn) [Compound 406, Methyl 6-(3-(azetidine-3-sulfonamido)bicyclo[1.1.1]pentan-1-yl)-4-(2-chloro-3,4-difluorophenyl)-2-(thiazol-2-yl)-1,4-dihydropyrimidine-5-carboxylate] registered a CC50 at 6 days of 5.6 µM. The EC50 in series [2] turned out to be 600 nM.

For `COC(=O)C1=C(C2CCN(S(=O)(=O)CCC(=O)O)CC2)NC(c2nccs2)=NC1c1ccc(F)c(F)c1Cl` (stereo not drawn) [Compound 230, 3-((4-(6-(2-Chloro-3,4-difluorophenyl)-5-(methoxycarbonyl)-2-(thiazol-2-yl)-3,6-dihydropyrimidin-4-yl)piperidin-1-yl)sulfonyl)propanoic Acid], in series [1], the CC50 at 6 days was over 100 µM. The EC50 in series [2] worked out at 146 nM.

In series [1], `COC(=O)C1=C(C2CCN(S(=O)(=O)c3cnn(Cc4ncco4)c3)CC2)NC(c2nccs2)=NC1c1ccc(F)c(F)c1Cl` (stereo not drawn) [Compound 465, Methyl 4-(2-chloro-3,4-difluorophenyl)-6-(1-((1-(oxazol-2-ylmethyl)-1H-pyrazol-4-yl)sulfonyl)piperidin-4-yl)-2-(thiazol-2-yl)-1,4-dihydropyrimidine-5-carboxylate] gave a CC50 at 6 days of 35.2 µM. The EC50 in series [2] amounted to 9 nM.

As for `COC(=O)C1=C([C@H]2CC[C@H](S(=O)(=O)NCC(C)(C)C(=O)OC(C)(C)C)CC2)NC(c2nccs2)=NC1c1ccc(F)c(F)c1Cl` (single isomer, unassigned) [Compound 361X, (trans)-methyl 6-(4-(N-(3-(tert-butoxy)-2,2-dimethyl-3-oxopropyl)sulfamoyl)cyclohexyl)-4-(2-chloro-3,4-difluorophenyl)-2-(thiazol-2-yl)-1,4-dihydropyrimidine-5-carboxylate], in series [1], the CC50 at 6 days was over 100 µM. In series [2], the EC50 was found to be 87 nM.

In series [1], `CCOC(=O)C1=C(C2CCN(S(=O)(=O)[C@H]3C[C@H](C(=O)O)C3)CC2)NC(c2c(F)cc(F)cc2F)=NC1c1ccc(F)c(F)c1Cl` (stereo partly drawn) [Compound 195A, (trans)-3-((4-(6-(2-Chloro-3,4-difluorophenyl)-5-(ethoxycarbonyl)-2-(2,4,6-trifluorophenyl)-3,6-dihydropyrimidin-4-yl)piperidin-1-yl)sulfonyl)cyclobutanecarboxylic Acid] registered a CC50 at 6 days of 43.9 µM. The EC50 in series [2] is 84 nM.

Consider `CCOC(=O)C1=C(C2CCCCC2)NC(c2nccs2)=NC1c1ccc(F)cc1Cl` (single isomer, unassigned) [Compound 47A, Ethyl 4-(2-chloro-4-fluorophenyl)-6-cyclohexyl-2-(thiazol-2-yl)-1,4-dihydro-pyrimidine-5-carboxylate], for which, in series [1], the CC50 at 6 days was determined as 30.9 µM. The EC50 in series [2] came out at 276 nM.

Regarding `CCOC(=O)C1=C(C2CCN(S(=O)(=O)[C@H]3C[C@H](C(=O)O)C3)CC2)NC(c2nccs2)=NC1c1ccc(F)c(F)c1Br` (stereo partly drawn) [Compound 199A, (trans)-3-((4-(6-(2-bromo-3,4-difluorophenyl)-5-(ethoxycarbonyl)-2-(thiazol-2-yl)-3,6-dihydropyrimidin-4-yl)piperidin-1-yl)sulfonyl)cyclobutanecarboxylic Acid], the CC50 at 6 days in series [1] was found to be 35.8 µM. Besides, in series [2], the EC50 came to 56 nM.

`COC(=O)C1=C(C2CCN(S(=O)(=O)[C@H]3C[C@H](C(C)(C)O)C3)CC2)NC(c2nccs2)=NC1c1ccc(F)cc1Cl` (single isomer, unassigned) [Compound 244B, (trans)-Methyl 4-(2-chloro-4-fluorophenyl)-6-(1-((3-(2-hydroxypropan-2-yl)cyclobutyl)sulfonyl)piperidin-4-yl)-2-(thiazol-2-yl)-1,4-dihydropyrimidine-5-carboxylate] showed a CC50 at 6 days in series [1] of 12.3 µM. In addition, the EC50 in series [2] was 6 nM.

Molecule `COC(=O)C1=C(C2CCN(S(=O)(=O)[C@H]3C[C@H](C(=O)O)C3)C2)NC(c2nccs2)=NC1c1ccc(F)cc1Cl` (relative stereo) [Compound 367A, (trans)-3-((3-(6-(2-chloro-4-fluorophenyl)-5-(methoxycarbonyl)-2-(thiazol-2-yl)-3,6-dihydropyrimidin-4-yl)pyrrolidin-1-yl)sulfonyl)cyclobutanecarboxylic Acid] came in with a CC50 at 6 days in series [1] of 33.4 µM. Moreover, the EC50 in series [2] came to 303 nM.

Regarding `COC(=O)C1=C(C2CCN(C)C2)NC(c2nccs2)=NC1c1ccc(F)cc1Cl` (single isomer, unassigned) [Compound 207C, methyl 4-(2-chloro-4-fluorophenyl)-6-(−1-methylpyrrolidin-3-yl)-2-(thiazol-2-yl)-1,4-dihydropyrimidine-5-carboxylate], the CC50 at 6 days in series [1] is over 20 µM. Also, the EC50 in series [2] stood at 753 nM.

`COC(=O)C1=C([C@H]2CC[C@H](S(=O)(=O)NC(C)C)CC2)NC(c2nccs2)=NC1c1ccc(F)c(F)c1Cl` (single isomer, unassigned) [Compound 234D, (trans)-methyl 4-(2-chloro-3,4-difluorophenyl)-6-(4-(N-isopropylsulfamoyl)cyclohexyl)-2-(thiazol-2-yl)-1,4-dihydropyrimidine-5-carboxylate]: it took 4.2 µM to reach half-maximal cytotoxicity in series [1] (CC50 at 6 days). Also, the EC50 in series [2] was 13 nM.

In series [1], `CCOC(=O)C[C@H]1CC[C@H](C2=C(C(=O)OC)C(c3cccc(F)c3Cl)N=C(c3nccs3)N2)CC1` (relative stereo) [Compound 28, Methyl 4-(2-chloro-3-fluorophenyl)-6-(trans-4-(2-ethoxy-2-oxoethyl)-cyclohexyl)-2-(thiazol-2-yl)-1,4-dihydropyrimidine-5-carboxylate] had a CC50 at 6 days of 49.3 µM. In series [2], the EC50 came to 407 nM.

Regarding `COC(=O)C1=C([C@H]2CC[C@H](C(=O)O)CC2)NC(c2nccs2)=NC1c1ccc(F)c(F)c1Br` (stereo partly drawn) [Compound 229B, (trans)-4-(6-(2-Bromo-3,4-difluorophenyl)-5-(methoxycarbonyl)-2-(thiazol-2-yl)-3,6-dihydropyrimidin-4-yl)cyclohexane-carboxylic Acid], it took 32.1 µM to reach half-maximal cytotoxicity in series [1] (CC50 at 6 days). For the same molecule, in series [2], the EC50 was determined as 11 nM.

In series [1], `COC(=O)C1=C(C2CCN(S(=O)(=O)C(F)F)CC2)NC(c2nccs2)=NC1c1ccc(F)c(F)c1Cl` (single isomer, unassigned) [Compound 166A, Methyl 4-(2-chloro-3,4-difluorophenyl)-6-(1-((difluoromethyl)sulfonyl)piperidin-4-yl)-2-(thiazol-2-yl)-1,4-dihydropyrimidine-5-carboxylate] yielded a CC50 at 6 days of over 50 µM. Further, in series [2], the EC50 was 61 nM.

For `CCCS(=O)(=O)N[C@H]1CC[C@H](C2=C(C(=O)OC)C(c3ccc(F)cc3Cl)N=C(c3nccs3)N2)CC1` (single isomer, unassigned) [Compound 186A, (trans)-Methyl 4-(2-chloro-4-fluorophenyl)-6-(4-(propyl-sulfonamido)cyclohexyl)-2-(thiazol-2-yl)-1,4-dihydropyrimidine-5-carboxylate], half-maximal cytotoxicity in series [1] (CC50 at 6 days) was put at 83.1 µM. For the same molecule, in series [2], the EC50 came out at 97 nM.

In series [1], `CCOC(=O)C1=C([C@H]2CC[C@H](C(=O)O)CC2)NC(c2nccs2)=NC1c1cccc(F)c1Cl` (single isomer, unassigned) [Compound 23, trans-4-(6-(2-Chloro-3-fluorophenyl)-5-(ethoxycarbonyl)-2-(thiazol-2-yl)-3,6-dihydropyrimidin-4-yl)cyclohexanecarboxylic Acid] gave a CC50 at 6 days of 47.5 µM. Also, the concentration giving a half-maximal response (EC50) in series [2] turned out to be 566 nM.

As for `COCCS(=O)(=O)N1CCC(C2=C(C(=O)OC)C(c3ccc(F)cc3Cl)N=C(c3nccs3)N2)CC1` (stereo not drawn) [Compound 215, Methyl 4-(2-chloro-4-fluorophenyl)-6-(1-((2-methoxyethyl)sulfonyl)piperidin-4-yl)-2-(thiazol-2-yl)-1,4-dihydropyrimidine-5-carboxylate], half-maximal cytotoxicity in series [1] (CC50 at 6 days) was put at 52.7 µM. Further, in series [2], the EC50 was found to be 51 nM.
